Some test systems named below: NCI/ADR-RES ovarian; MCF7 breast; PC-3 prostate; MDA-MB-435; DU-145 prostate; RXF 393 renal; NCI-H460 lung; LOX IMVI melanoma; 786-0 renal; CCRF-CEM leukemia.
Common to all, as to experiment: DTP human tumour cell line panel, 48 h

Where “and” joins values, the source holds several entries; their conditions need not be identical. Equal entries are not always repeated.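 Step 1: Grow cells in 96-well plates. Step 2: Expose to compound for 48 hours at 5 concentrations. Step 3: Interpolate endpoints linearly; if unreached, use highest concentration. GI50 = concentration required for 50% inhibition of growth. Definition used: TGI = concentration required for complete inhibition of growth.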

As for `O=C(Nc1ccc(Cl)cc1F)c1cc(I)ccc1O`, the GI50 (as a rule, the concentration that inhibits growth by half) was 2.02 µM in the experiment with NCI/ADR-RES ovarian; 2.38 µM with MCF7 breast; 2.07 µM in the experiment on PC-3 prostate; 2.08 µM in the experiment on MDA-MB-435; 3.1 µM in the experiment on DU-145 prostate; 1.57 µM with RXF 393 renal. For the same molecule, the GI50 in the experiment with NCI-H460 lung was 1.5 µM; in the experiment on LOX IMVI melanoma, 1.42 µM; with 786-0 renal, 2.98 µM; in the experiment on CCRF-CEM leukemia it was 2.78 µM. The TGI (usually the concentration at which net growth stops) came out at 8.68 µM in the experiment with NCI/ADR-RES ovarian; 18.5 µM with MCF7 breast; 6.36 µM in the experiment with PC-3 prostate; 7.9 µM in the experiment on MDA-MB-435; 47.9 µM in the experiment on DU-145 prostate; 5.2 µM with RXF 393 renal. Moreover, the TGI was 14.2 µM with NCI-H460 lung, 6.79 µM with LOX IMVI melanoma, 9.24 µM in the experiment with 786-0 renal and 9.77 µM in the experiment with CCRF-CEM leukemia.
Take `O=C(CN1CCN(c2ccc(Cl)cc2)CC1)N1CCN(c2nnc(-c3ccc(Cl)cc3)c(-c3ccc(Cl)cc3)n2)CC1`: the GI50 was 34 µM in the experiment with NCI/ADR-RES ovarian; 8.9 µM in the experiment with MCF7 breast; 57.5 µM with PC-3 prostate; 50.9 µM in the experiment on MDA-MB-435; 80 µM in the experiment on DU-145 prostate; 23.8 µM in the experiment on RXF 393 renal. Moreover, the GI50 with NCI-H460 lung was more than 100 µM; with LOX IMVI melanoma, 14.5 µM; in the experiment with 786-0 renal, 22 µM; in the experiment on CCRF-CEM leukemia, 16.5 µM. Further, the TGI in the experiment with NCI/ADR-RES ovarian was more than 100 µM; with MCF7 breast, more than 100 µM; with PC-3 prostate, more than 100 µM; in the experiment on MDA-MB-435 it was more than 100 µM; in the experiment with DU-145 prostate, more than 100 µM; in the experiment with RXF 393 renal, 77.3 µM. Besides, the TGI with NCI-H460 lung is more than 100 µM; with LOX IMVI melanoma, 76.4 µM; in the experiment on 786-0 renal, more than 100 µM; in the experiment with CCRF-CEM leukemia it was 73.9 µM.
Regarding `O=C(c1ccco1)c1nc2cc(F)ccc2[n+]([O-])c1C(F)(F)F`, the GI50 in the experiment on NCI/ADR-RES ovarian was 21.5 µM; in the experiment on MCF7 breast, 56.2 µM; in the experiment with PC-3 prostate it was 35.3 µM; in the experiment with MDA-MB-435 it was 19.2 µM; in the experiment with DU-145 prostate, 38.8 µM; in the experiment on RXF 393 renal, 19.2 µM. Moreover, the GI50 with NCI-H460 lung is 41.8 µM; in the experiment with LOX IMVI melanoma, 19.4 µM; in the experiment on 786-0 renal it was 53.2 µM; in the experiment with CCRF-CEM leukemia it was 29.9 µM. Further, the TGI is 66.5 µM in the experiment with NCI/ADR-RES ovarian; more than 100 µM in the experiment with MCF7 breast; more than 100 µM in the experiment on PC-3 prostate; 44 µM in the experiment on MDA-MB-435; more than 100 µM with DU-145 prostate; 52.7 µM with RXF 393 renal. For the same molecule, the TGI in the experiment with NCI-H460 lung is more than 100 µM; with LOX IMVI melanoma, 39.2 µM; in the experiment on 786-0 renal it was more than 100 µM; in the experiment with CCRF-CEM leukemia, more than 100 µM.
Consider `O=C(Nc1ccc(Oc2ccc3nc(NC(=O)c4ccccc4)[nH]c3c2)cc1)Nc1cc(C(F)(F)F)ccc1F`, for which the GI50 with NCI/ADR-RES ovarian was 0.771 µM; in the experiment on MCF7 breast it was 0.758 µM; in the experiment on PC-3 prostate it was 0.624 µM; with MDA-MB-435, 0.709 µM; in the experiment on DU-145 prostate, 1.32 µM; in the experiment with RXF 393 renal, 1.11 µM. The GI50 was 1.59 µM in the experiment with NCI-H460 lung, 0.97 µM in the experiment with LOX IMVI melanoma, 7.32 µM with 786-0 renal and 0.657 µM in the experiment on CCRF-CEM leukemia. The total growth inhibition concentration (TGI) in the experiment on NCI/ADR-RES ovarian came out at 3.38 µM; in the experiment with MCF7 breast it was 5.14 µM; in the experiment with PC-3 prostate it was 2.76 µM; with MDA-MB-435, 2.94 µM; in the experiment on DU-145 prostate, 16.6 µM; in the experiment with RXF 393 renal, 8.49 µM. Moreover, the TGI was more than 22.4 µM in the experiment with NCI-H460 lung, more than 10.8 µM in the experiment with LOX IMVI melanoma, more than 25 µM with 786-0 renal and more than 9.17 µM in the experiment on CCRF-CEM leukemia.
On to `O=P(NC12CC3CC(CC(C3)C1)C2)(N1CC1)N1CC1`, for which the TGI is more than 100 µM in the experiment with NCI/ADR-RES ovarian; more than 100 µM in the experiment with MCF7 breast; more than 100 µM in the experiment on PC-3 prostate; more than 100 µM in the experiment with MDA-MB-435; more than 100 µM in the experiment with DU-145 prostate; 74.3 µM in the experiment with RXF 393 renal. Further, the TGI with NCI-H460 lung, in the experiment with LOX IMVI melanoma, in the experiment with 786-0 renal and with CCRF-CEM leukemia was more than 100 µM in each case.
Consider `CN(C)c1ncnc2c1nnn2C1OC(CO)C(O)C1O` (centres undefined), for which the GI50 in the experiment with NCI/ADR-RES ovarian is 0.233 µM; in the experiment on MCF7 breast it was 0.216 µM; with PC-3 prostate it was 0.271 µM; in the experiment with MDA-MB-435 it was 0.234 µM; in the experiment on DU-145 prostate it was 0.106 µM; in the experiment with RXF 393 renal it was 0.386 µM. The GI50 in the experiment with NCI-H460 lung was 0.247 µM; with LOX IMVI melanoma, 0.156 µM; in the experiment with 786-0 renal, 0.226 µM; in the experiment with CCRF-CEM leukemia, 0.0662 µM. Also, the TGI in the experiment with NCI/ADR-RES ovarian is more than 100 µM; with MCF7 breast, more than 23.4 µM; in the experiment with PC-3 prostate, more than 45.5 µM; with MDA-MB-435 it was more than 100 µM; with DU-145 prostate, more than 100 µM; in the experiment with RXF 393 renal, more than 100 µM. Also, the TGI in the experiment with NCI-H460 lung, with LOX IMVI melanoma, in the experiment on 786-0 renal and in the experiment with CCRF-CEM leukemia was more than 100 µM throughout.
For the molecule `CN(N=O)C(=O)N[C@@H](C=O)[C@@H](O)[C@H](O)[C@H](O)CO`, the TGI with NCI/ADR-RES ovarian was more than 750 µM; in the experiment with MCF7 breast, more than 633 µM; in the experiment with PC-3 prostate it was more than 750 µM; in the experiment on MDA-MB-435 it was more than 750 µM; with DU-145 prostate, more than 750 µM; with RXF 393 renal it was more than 750 µM. Also, the concentration for total growth inhibition (TGI) is more than 750 µM in the experiment with NCI-H460 lung; more than 750 µM with LOX IMVI melanoma; more than 750 µM in the experiment on 786-0 renal; 522 µM and > 750 µM in the experiment with CCRF-CEM leukemia. In addition, the GI50 with RXF 393 renal was more than 750 µM; in the experiment with NCI-H460 lung, more than 750 µM; with LOX IMVI melanoma it was 722 µM and > 750 µM; in the experiment on 786-0 renal it was more than 750 µM; in the experiment with CCRF-CEM leukemia, more than 750 µM.
As for `CC(=O)c1cc2c(cc1Nc1c3ccccc3nc3occ(Cl)c13)OCO2`, the GI50 in the experiment with NCI/ADR-RES ovarian was 0.236 µM; in the experiment with MCF7 breast, 0.0939 µM; in the experiment on PC-3 prostate it was 0.0856 µM; in the experiment on MDA-MB-435 it was 0.0444 µM; in the experiment with DU-145 prostate it was 0.227 µM; in the experiment with RXF 393 renal, 0.193 µM. Moreover, the 50% growth inhibitory concentration (GI50) in the experiment on NCI-H460 lung was 0.27 µM; in the experiment with LOX IMVI melanoma, 0.435 µM; with 786-0 renal, 0.291 µM; with CCRF-CEM leukemia, 0.0468 µM. Further, the TGI in the experiment on NCI/ADR-RES ovarian is 1.47 µM; with MCF7 breast, more than 100 µM; with PC-3 prostate, 3.71 µM; in the experiment with MDA-MB-435, 0.161 µM; in the experiment with RXF 393 renal it was 0.523 µM; in the experiment with NCI-H460 lung, more than 40.1 µM. Besides, the TGI is more than 100 µM in the experiment with LOX IMVI melanoma, more than 44.3 µM with 786-0 renal and 0.291 µM with CCRF-CEM leukemia.
